Experimental data published in publication PMC12136031 (Science Advances, 2025).
pEC50, pIC50: −log10 of the molar value. Read-outs that look alike come from different tables or passages of the source.

Tests used:
[1] = target: T1, KvLQT1/minK (Homo sapiens, UniProt P51787); assay: Safety47 Ion Channel KvLQT1/minK; type: cell-based; conditions: for Emax: read-out: Max Response; for pIC50: read-out: RC50 (IC50); for pEC50: read-out: RC50 (EC50)
T1 construct: purchased Eurofins Panlab (Safety47 Safety Scan, contract panel)

[2] = target: T2, ADRA1A (Homo sapiens, UniProt P35348); assay: Safety47 Calcium Flux ADRA1A; type: cell-based; conditions: for Emax: read-out: Max Response; for pEC50: read-out: RC50 (EC50); for pIC50: read-out: RC50 (IC50)
T2 construct: purchased Eurofins Panlab Safety47 Safety Scan
T2 sequence (P35348 1-466): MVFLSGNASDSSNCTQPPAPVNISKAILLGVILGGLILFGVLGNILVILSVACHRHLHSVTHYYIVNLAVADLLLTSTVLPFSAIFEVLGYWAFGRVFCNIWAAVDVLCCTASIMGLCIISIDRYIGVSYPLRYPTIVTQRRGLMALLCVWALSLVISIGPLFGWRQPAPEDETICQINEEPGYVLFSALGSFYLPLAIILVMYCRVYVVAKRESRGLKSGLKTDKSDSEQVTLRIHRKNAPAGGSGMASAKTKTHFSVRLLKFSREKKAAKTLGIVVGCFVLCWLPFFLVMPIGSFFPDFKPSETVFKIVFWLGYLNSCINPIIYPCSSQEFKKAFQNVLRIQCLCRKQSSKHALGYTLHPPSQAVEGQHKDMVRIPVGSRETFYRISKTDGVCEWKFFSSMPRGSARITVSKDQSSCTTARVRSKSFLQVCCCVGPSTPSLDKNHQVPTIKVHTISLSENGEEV

[3] = target: T3, CNR1 (Homo sapiens, UniProt P21554); assay: Safety47 cAMP CNR1; type: cell-based; conditions: for Emax: read-out: Max Response; for pEC50: read-out: RC50 (EC50); for pIC50: read-out: RC50 (IC50)
T3 construct: purchased Eurofins Panlab Safety47 Safety Scan

[4] = system: SARS-CoV-2; assay: In vivo hamster SARS-CoV-2 infection assay; design: species or system Syrian golden hamster
[5] = system: TFEB; assay: TFEB protein level / nuclear localization in BEAS-2B cells; type: cell-based, human; conditions: in the presence of DCAF7 (WT vs DCAF7 KO BEAS-2B), 18 hours
[6] = system: Vero E6 cells; conditions: read-out: Cytotoxicity CC50 Vero E6 MEM
[7] = system: lysosomal pH; assay: Lysosomal pH (lysosensor yellow/blue) in OC43-infected BEAS-2B cells; type: cell-based, human; conditions: OC43 7 hours, 18 hours pretreatment, 100 nM
[8] = target: T4, GR (Homo sapiens, UniProt P04150); assay: Safety47 NHR Protein Interaction GR; type: cell-based; conditions: for Emax: read-out: Max Response; for pEC50: read-out: RC50 (EC50); for pIC50: read-out: RC50 (IC50)
T4 construct: purchased Eurofins Panlab (Safety47 Safety Scan, contract panel)
T4 sequence (P04150 1-777): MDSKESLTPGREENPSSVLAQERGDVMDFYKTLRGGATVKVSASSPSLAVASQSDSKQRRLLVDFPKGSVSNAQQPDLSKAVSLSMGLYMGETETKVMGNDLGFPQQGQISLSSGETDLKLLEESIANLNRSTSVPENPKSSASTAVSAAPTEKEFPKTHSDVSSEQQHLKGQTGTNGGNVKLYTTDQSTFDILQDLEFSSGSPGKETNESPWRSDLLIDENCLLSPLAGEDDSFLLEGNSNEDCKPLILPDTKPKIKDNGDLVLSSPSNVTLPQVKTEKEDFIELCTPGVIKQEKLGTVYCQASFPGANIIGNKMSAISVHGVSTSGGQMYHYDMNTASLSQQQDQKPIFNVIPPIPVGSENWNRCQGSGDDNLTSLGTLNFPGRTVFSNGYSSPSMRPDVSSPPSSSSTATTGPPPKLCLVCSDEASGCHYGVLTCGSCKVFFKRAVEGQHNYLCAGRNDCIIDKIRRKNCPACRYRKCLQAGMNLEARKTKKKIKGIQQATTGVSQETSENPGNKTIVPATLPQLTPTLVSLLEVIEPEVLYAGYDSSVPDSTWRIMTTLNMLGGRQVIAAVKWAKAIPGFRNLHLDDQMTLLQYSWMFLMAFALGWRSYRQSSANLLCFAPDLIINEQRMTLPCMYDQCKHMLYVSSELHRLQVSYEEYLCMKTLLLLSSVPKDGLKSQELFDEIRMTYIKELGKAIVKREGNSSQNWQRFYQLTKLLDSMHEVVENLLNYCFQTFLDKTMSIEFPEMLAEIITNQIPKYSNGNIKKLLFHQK

[9] = in vitro; conditions: African green monkey
[10] = target: T5, EDNRA (Homo sapiens, UniProt P25101); assay: Safety47 Calcium Flux EDNRA; type: cell-based; conditions: for Emax: read-out: Max Response; for pEC50: read-out: RC50 (EC50); for pIC50: read-out: RC50 (IC50)
T5 construct: purchased Eurofins Panlab Safety47 Safety Scan
T5 sequence (P25101 21-427): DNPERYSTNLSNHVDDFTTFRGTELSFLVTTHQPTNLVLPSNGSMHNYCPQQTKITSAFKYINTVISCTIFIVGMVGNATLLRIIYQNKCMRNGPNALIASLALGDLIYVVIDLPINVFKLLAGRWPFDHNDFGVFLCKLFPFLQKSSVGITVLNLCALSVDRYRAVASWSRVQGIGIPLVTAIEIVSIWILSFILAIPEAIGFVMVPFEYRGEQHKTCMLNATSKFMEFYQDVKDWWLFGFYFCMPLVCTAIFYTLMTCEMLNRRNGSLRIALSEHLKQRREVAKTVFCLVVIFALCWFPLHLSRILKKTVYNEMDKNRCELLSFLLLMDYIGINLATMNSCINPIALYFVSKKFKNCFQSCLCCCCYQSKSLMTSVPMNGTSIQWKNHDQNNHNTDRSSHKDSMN

[11] = target: T6, CAV1.2 (Homo sapiens, UniProt Q13936); assay: Safety47 Ion Channel CAV1.2; type: cell-based; conditions: Blocker; for Emax: read-out: Max Response; for pIC50: read-out: RC50 (IC50)
T6 construct: purchased Eurofins Panlab (Safety47 Safety Scan, contract panel)

[12] = target: T7, hERG (Homo sapiens, UniProt Q12809); assay: Safety47 Ion Channel hERG; type: cell-based; conditions: Blocker; for pIC50: read-out: RC50 (IC50); for Emax: human, read-out: Max Response
T7 construct: purchased Eurofins Panlab (Safety47 Safety Scan, contract panel)

[13] = target: T8, LCK (Homo sapiens, UniProt P06239); assay: Safety47 Kinase Binding LCK; conditions: Kinases, Inhibitor; for Emax: read-out: Max Response; for pIC50: read-out: RC50 (IC50)
T8 construct: purchased Eurofins Panlab (Safety47 Safety Scan, contract panel)

[14] = target: T9, NAV1.5 (Homo sapiens, UniProt Q14524); assay: Safety47 Ion Channel NAV1.5; type: cell-based; conditions: Blocker; for Emax: read-out: Max Response; for pIC50: read-out: RC50 (IC50)
T9 construct: purchased Eurofins Panlab (Safety47 Safety Scan, contract panel)

T1 sequence (P51787 whole entry): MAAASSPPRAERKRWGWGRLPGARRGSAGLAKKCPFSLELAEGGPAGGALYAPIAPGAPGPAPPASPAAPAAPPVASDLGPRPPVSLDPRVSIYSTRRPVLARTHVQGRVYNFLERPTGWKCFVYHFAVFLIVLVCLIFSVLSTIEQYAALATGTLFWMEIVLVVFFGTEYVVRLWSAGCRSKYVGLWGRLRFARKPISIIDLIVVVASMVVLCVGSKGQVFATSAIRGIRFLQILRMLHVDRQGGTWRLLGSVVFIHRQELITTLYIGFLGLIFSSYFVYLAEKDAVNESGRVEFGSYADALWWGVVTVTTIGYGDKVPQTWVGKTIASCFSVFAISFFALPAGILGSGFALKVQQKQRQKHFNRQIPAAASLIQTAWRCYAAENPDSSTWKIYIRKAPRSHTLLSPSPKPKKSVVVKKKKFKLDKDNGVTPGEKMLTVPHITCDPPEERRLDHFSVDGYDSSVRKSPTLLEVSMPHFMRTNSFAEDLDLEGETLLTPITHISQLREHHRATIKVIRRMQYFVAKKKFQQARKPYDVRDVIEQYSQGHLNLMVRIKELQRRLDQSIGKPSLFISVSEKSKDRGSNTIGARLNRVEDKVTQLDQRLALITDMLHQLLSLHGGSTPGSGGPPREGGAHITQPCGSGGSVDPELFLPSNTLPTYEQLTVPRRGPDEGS
T6 sequence (Q13936 whole entry): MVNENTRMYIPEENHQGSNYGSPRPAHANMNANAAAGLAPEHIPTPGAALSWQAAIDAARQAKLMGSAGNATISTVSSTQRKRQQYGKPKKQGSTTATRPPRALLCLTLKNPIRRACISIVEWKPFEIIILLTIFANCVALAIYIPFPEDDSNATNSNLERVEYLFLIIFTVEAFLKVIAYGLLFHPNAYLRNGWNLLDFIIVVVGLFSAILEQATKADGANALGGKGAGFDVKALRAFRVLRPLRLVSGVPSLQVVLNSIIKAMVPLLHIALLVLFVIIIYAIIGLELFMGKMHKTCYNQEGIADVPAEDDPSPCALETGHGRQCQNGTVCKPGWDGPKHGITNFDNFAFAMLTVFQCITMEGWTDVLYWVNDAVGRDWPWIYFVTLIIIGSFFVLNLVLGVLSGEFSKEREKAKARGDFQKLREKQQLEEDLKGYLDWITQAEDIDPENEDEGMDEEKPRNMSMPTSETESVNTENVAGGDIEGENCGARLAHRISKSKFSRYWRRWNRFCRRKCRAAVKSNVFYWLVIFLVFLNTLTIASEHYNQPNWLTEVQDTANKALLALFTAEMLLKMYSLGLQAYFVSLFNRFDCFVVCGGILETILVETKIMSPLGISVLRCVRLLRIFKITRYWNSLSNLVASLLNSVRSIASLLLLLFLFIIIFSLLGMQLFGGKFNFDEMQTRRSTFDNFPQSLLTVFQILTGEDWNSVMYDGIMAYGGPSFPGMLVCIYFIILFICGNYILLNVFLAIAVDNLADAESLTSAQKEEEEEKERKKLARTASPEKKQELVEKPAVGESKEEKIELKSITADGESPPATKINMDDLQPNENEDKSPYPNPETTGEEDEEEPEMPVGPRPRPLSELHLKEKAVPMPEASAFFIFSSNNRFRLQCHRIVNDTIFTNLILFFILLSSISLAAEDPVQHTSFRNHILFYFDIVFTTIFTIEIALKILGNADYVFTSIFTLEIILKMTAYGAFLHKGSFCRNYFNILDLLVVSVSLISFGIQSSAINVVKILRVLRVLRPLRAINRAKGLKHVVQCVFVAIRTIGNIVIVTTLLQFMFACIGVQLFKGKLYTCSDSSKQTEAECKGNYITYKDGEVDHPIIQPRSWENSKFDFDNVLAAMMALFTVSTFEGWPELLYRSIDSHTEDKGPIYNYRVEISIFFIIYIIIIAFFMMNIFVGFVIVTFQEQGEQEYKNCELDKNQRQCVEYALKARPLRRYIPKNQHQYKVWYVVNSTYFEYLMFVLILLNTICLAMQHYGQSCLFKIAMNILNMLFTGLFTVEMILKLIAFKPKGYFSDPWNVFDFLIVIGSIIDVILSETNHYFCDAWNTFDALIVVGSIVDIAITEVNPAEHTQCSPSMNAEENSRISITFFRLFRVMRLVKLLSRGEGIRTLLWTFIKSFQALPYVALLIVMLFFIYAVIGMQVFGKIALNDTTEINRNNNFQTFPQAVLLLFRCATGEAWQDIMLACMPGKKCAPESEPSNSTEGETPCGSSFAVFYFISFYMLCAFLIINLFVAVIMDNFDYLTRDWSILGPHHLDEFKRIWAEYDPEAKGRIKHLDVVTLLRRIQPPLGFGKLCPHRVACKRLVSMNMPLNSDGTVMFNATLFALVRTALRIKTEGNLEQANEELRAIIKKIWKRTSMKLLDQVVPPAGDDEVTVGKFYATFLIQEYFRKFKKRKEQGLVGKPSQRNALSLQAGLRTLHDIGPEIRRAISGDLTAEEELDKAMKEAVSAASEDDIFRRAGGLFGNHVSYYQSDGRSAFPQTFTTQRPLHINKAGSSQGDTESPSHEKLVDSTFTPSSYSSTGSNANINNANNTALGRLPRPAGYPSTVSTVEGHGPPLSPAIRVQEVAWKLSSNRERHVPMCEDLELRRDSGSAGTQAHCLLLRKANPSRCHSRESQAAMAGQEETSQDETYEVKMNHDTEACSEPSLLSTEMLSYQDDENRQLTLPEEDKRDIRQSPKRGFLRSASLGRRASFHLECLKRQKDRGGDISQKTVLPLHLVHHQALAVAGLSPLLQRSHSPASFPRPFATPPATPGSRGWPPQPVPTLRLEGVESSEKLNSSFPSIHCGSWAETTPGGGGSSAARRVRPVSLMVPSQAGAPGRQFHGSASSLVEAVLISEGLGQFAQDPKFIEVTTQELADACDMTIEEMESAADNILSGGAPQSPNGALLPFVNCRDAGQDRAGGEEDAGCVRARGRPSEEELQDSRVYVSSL
T6 sequence (Q08289 whole entry partner): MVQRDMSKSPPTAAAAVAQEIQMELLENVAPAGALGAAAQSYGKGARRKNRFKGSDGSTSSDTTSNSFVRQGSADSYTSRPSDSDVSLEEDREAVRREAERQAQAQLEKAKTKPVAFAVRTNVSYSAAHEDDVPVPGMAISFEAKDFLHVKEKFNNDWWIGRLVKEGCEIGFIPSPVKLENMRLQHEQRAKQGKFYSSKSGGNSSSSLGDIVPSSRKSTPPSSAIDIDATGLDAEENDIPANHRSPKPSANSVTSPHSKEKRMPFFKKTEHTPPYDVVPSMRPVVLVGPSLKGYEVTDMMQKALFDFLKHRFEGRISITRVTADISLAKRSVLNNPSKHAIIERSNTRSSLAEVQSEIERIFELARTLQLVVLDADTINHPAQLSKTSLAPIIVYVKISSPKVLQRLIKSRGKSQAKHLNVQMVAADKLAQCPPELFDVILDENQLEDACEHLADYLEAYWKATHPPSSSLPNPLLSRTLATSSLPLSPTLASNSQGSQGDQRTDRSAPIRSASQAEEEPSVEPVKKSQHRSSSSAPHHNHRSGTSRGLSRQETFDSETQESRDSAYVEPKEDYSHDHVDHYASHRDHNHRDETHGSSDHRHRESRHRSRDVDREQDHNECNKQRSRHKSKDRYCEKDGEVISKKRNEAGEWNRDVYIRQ
T6 sequence (P54289 25-946 partner limits assumed): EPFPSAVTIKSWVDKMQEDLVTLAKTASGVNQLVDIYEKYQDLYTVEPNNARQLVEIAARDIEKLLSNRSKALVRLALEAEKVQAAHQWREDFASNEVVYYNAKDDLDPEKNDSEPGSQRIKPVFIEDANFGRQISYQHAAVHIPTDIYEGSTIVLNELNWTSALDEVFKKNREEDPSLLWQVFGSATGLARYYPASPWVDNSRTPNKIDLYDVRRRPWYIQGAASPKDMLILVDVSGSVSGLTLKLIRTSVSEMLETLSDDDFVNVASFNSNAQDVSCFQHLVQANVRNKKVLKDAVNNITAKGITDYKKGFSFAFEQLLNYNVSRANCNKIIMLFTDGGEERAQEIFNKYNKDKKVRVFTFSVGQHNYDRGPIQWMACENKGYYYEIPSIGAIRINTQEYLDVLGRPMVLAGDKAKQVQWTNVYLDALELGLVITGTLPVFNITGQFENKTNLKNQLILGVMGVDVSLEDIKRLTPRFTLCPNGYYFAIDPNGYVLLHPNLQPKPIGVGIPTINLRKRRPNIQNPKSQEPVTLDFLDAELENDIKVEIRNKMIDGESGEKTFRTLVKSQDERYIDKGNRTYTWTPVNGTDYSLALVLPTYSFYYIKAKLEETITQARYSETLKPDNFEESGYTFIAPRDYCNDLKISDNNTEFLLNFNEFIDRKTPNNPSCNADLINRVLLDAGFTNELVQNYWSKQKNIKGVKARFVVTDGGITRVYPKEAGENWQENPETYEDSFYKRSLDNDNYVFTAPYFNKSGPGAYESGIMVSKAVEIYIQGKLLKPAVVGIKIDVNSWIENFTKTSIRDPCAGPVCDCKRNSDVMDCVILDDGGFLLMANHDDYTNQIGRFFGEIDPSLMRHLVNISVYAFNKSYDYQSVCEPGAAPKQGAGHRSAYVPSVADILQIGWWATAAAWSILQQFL
T6 sequence (P54289 947-1103 partner limits assumed): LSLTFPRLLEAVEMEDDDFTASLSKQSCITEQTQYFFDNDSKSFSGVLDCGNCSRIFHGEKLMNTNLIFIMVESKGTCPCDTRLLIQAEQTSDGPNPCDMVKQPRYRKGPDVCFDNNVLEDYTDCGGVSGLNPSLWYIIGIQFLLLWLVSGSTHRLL

| Compound | Emax ([1]; Blocker) [%] | pIC50 ([1]; Blocker) | Emax ([1]; Opener) [%] | pEC50 ([1]; Opener) | Emax ([2]; Agonist) [%] | pEC50 ([2]; Agonist) | Emax ([2]; Antagonist) [%] | pIC50 ([2]; Antagonist) | Emax ([3]; Agonist) [%] | pEC50 ([3]; Agonist) | Emax ([3]; Antagonist) [%] | pIC50 ([3]; Antagonist) | TFEB protein level [5] | Emax ([8]; Agonist) [%] | pEC50 ([8]; Agonist) | Emax ([8]; Antagonist) [%] | pIC50 ([8]; Antagonist) | Emax ([10]; Agonist) [%] | pEC50 ([10]; Agonist) | Emax ([10]; Antagonist) [%] | further results |
| --- | --- | --- | --- | --- | --- | --- | --- | --- | --- | --- | --- | --- | --- | --- | --- | --- | --- | --- | --- | --- | --- |
| Cl.c1ccc2c(Nc3ccc4[nH]ccc4c3)nc(-c3ccncc3)nc2c1 [BC18630, N-1H-indol-5-yl-2-pyridin-4-ylquinazolin-4-amine hydrochloride] | 21.4 | < 5.00 | 6.18 | < 5.00 | 0 | < 5.00 | 0 | < 5.00 | 0.8 | < 5.00 | 26.9 | < 5.00 | increased | 0 | < 5.00 | 0 | < 5.00 | 0 | < 5.00 | 3.72 | NP-positive epithelial staining (IHC of lung slices) ([4]; 4 dpi): notably reduced; Observed levels of lung injury ([4]; H&E histology): mitigated; Lung viral load reduction ([4]; higher dose (50 mg/kg oral BID), 4 and 6 dpi): > 90%; Lung viral titer (PFU) ([4]; oral BID 20 and 50 mg/kg, all time points (2, 4, 6 dpi)): dose-dependently reduced; CC50 [6]: > 10 µM; Virally induced lysosomal alkalization (lysosomal pH) [7]: inhibited this virally induced alkalization; CC50 [9]: > 10 µM; pIC50 ([10]; Antagonist): < 5.00; Emax [11]: 0%; pIC50 [11]: < 5.00; pIC50 [12]: < 5.00; Emax [12]: 6.14%; Emax [13]: 49.1%; pIC50 [13]: < 5.00; Emax [14]: 30%; pIC50 [14]: < 5.00 |
| Cl.Fc1cc(Nc2nc(-c3ccncc3)nc3ncccc23)cc2cc[nH]c12 [BC18813, N-(7-fluoro-1H-indol-5-yl)-2-pyridin-4-ylpyrido[2,3-d]pyrimidin-4-amine hydrochloride] | 12.9 | < 5.00 | 3.89 | < 5.00 | 5.5 | < 5.00 | 1.12 | < 5.00 | 61 | 5.21 | 0 | < 5.00 | increased | 4.56 | < 5.00 | 7.56 | < 5.00 | 5.5 | < 5.00 | 2.32 | Curve Bottom ([3]; Agonist): 0; Curve Top ([3]; Agonist): 100; Hill ([3]; Agonist): 1.07; pIC50 ([10]; Antagonist): < 5.00; Emax [11]: 0%; pIC50 [11]: < 5.00; pIC50 [12]: < 5.00; Emax [12]: 4.86%; Emax [13]: 11.2%; pIC50 [13]: < 5.00; Emax [14]: 8.29%; pIC50 [14]: < 5.00 |
